Assay results from the supplement of paper PMC9663587.

What was measured:
YKL-5-124 = compound: C=CC(=O)Nc1ccc(C(=O)Nc2[nH]nc3c2CN(C(=O)N[C@H](CN(C)C)c2ccccc2)C3(C)C)cc1 [YKL-5-124]; experiment: GR value, 72 h; higher = faster growth (1 = untreated, <0 = killing);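 note: breast cancer and non-malignant breast epithelial lines, nine half-log doses, viable cells counted by Hoechst and LIVE/DEAD dye imaging versus time-zero plates and DMSO controls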
[1] = compound: CCc1cnn2c(NCc3ccc[n+]([O-])c3)cc(N3CCCC[C@H]3CCO)nc12; experiment: as above
LEE011/Ribociclib = compound: CN(C)C(=O)c1cc2cnc(Nc3ccc(N4CCNCC4)cn3)nc2n1C1CCCC1 [LEE011/Ribociclib]; experiment: as above
BSJ-03-123 = compound: CC(=O)c1c(C)c2cnc(Nc3ccc(N4CCN(CCOCCOCCOCCNC(=O)COc5cccc6c5C(=O)N(C5CCC(=O)NC5=O)C6=O)CC4)cn3)nc2n(C2CCCC2)c1=O [BSJ-03-123]; experiment: as above
THZ1 = compound: CN(C)C/C=C/C(=O)Nc1ccc(C(=O)Nc2cccc(Nc3ncc(Cl)c(-c4c[nH]c5ccccc45)n3)c2)cc1 [THZ1]; experiment: as above
[2] = compound: CCN1CCN(Cc2ccc(Nc3ncc(F)c(-c4cc(F)c5nc(C)n(C(C)C)c5c4)n3)nc2)CC1; experiment: as above
THZ531 [3] = compound: T1, CN(C)C/C=C/C(=O)Nc1ccc(C(=O)N2CCC[C@@H](Nc3ncc(Cl)c(-c4c[nH]c5ccccc45)n3)C2)cc1 [THZ531]; experiment: as above
[4] = compound: CC(=O)c1c(C)c2cnc(Nc3ccc(N4CCNCC4)cn3)nc2n(C2CCCC2)c1=O; experiment: as above
Rucaparib = compound: CNCc1ccc(-c2[nH]c3cc(F)cc4c3c2CCNC4=O)cc1 [Rucaparib]
BSJ-01-175 = compound: CN(C)C/C=C/C(=O)Nc1ccc(O[C@@H]2CCC[C@@H](Nc3ncc(Cl)c(-c4c[nH]c5ccccc45)n3)C2)cc1 [BSJ-01-175]
Tivantinib/ARQ197 = compound: O=C1NC(=O)[C@@H](c2cn3c4c(cccc24)CCC3)[C@@H]1c1c[nH]c2ccccc12 [Tivantinib/ARQ197]
Pictilisib/GDC0941 = compound: CS(=O)(=O)N1CCN(Cc2cc3nc(-c4cccc5[nH]ncc45)nc(N4CCOCC4)c3s2)CC1 [Pictilisib/GDC0941]
Cediranib/AZD2171 = compound: COc1cc2c(Oc3ccc4[nH]c(C)cc4c3F)ncnc2cc1OCCCN1CCCC1 [Cediranib/AZD2171]
senexin b = compound: CN1CCN(C(=O)c2ccc3cc(CCNc4ncnc5ccc(C#N)cc45)ccc3c2)CC1 [senexin b]
Ceritinib/LDK378 = compound: Cc1cc(Nc2ncc(Cl)c(Nc3ccccc3S(=O)(=O)C(C)C)n2)c(OC(C)C)cc1C1CCNCC1 [Ceritinib/LDK378]
AZD6738 = compound: C[C@@H]1COCCN1c1cc(C2([S@](C)(=N)=O)CC2)nc(-c2cc[nH]c3nccc2-3)n1 [AZD6738]
Paclitaxel = compound: CC(=O)O[C@H]1C(=O)[C@@]2(C)[C@H]([C@H](OC(=O)c3ccccc3)[C@]3(O)C[C@H](OC(=O)[C@H](O)[C@@H](NC(=O)c4ccccc4)c4ccccc4)C(C)=C1C3(C)C)[C@]1(OC(C)=O)CO[C@@H]1C[C@@H]2O [Paclitaxel]
THZ531 [5] = compound: T1, THZ531
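Throughout, for GR50, 72 h: breast cancer and non-malignant breast epithelial cell lines, Deep Dye Drop or Dye Drop imaging, nine half-log doses, GR normalized to time-zero plates and DMSO-only controls.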

## BT474
YKL-5-124; 0.001 µM
  GR value: 0.506 GR
YKL-5-124; 0.003162 µM
  GR value: 0.225 GR
YKL-5-124; 0.01 µM
  GR value: 0.197 GR
YKL-5-124; 0.03162 µM
  GR value: 0.179 GR
YKL-5-124; 0.1 µM
  GR value: -0.0193 GR
YKL-5-124; 0.3162 µM
  GR value: -0.106 GR
YKL-5-124; 1 µM
  GR value: -0.16 GR
YKL-5-124; 3.162 µM
  GR value: -0.0451 GR
YKL-5-124; 10 µM
  GR value: -0.519 GR
[1]; 0.0001 µM
  GR value: 1.02 GR
[1]; 0.0003162 µM
  GR value: 0.963 GR
[1]; 0.001 µM
  GR value: 1.17 GR
[1]; 0.003162 µM
  GR value: 1.12 GR
[1]; 0.01 µM
  GR value: 0.918 GR
[1]; 0.03162 µM
  GR value: -0.569 GR
[1]; 0.1 µM
  GR value: -0.753 GR
[1]; 0.3162 µM
  GR value: -0.769 GR
[1]; 1 µM
  GR value: -0.75 GR
LEE011/Ribociclib; 0.001 µM
  GR value: 0.773 GR
LEE011/Ribociclib; 0.003162 µM
  GR value: 0.676 GR
LEE011/Ribociclib; 0.01 µM
  GR value: 0.849 GR
LEE011/Ribociclib; 0.03162 µM
  GR value: 0.637 GR
LEE011/Ribociclib; 0.1 µM
  GR value: 0.674 GR
LEE011/Ribociclib; 0.3162 µM
  GR value: 0.447 GR
LEE011/Ribociclib; 1 µM
  GR value: 0.532 GR
LEE011/Ribociclib; 3.162 µM
  GR value: 0.6 GR
LEE011/Ribociclib; 10 µM
  GR value: 0.711 GR
BSJ-03-123; 0.001 µM
  GR value: 1.01 GR
BSJ-03-123; 0.003162 µM
  GR value: 0.599 GR
BSJ-03-123; 0.01 µM
  GR value: 0.685 GR
BSJ-03-123; 0.03162 µM
  GR value: 0.727 GR
BSJ-03-123; 0.1 µM
  GR value: 0.515 GR
BSJ-03-123; 0.3162 µM
  GR value: 0.523 GR
BSJ-03-123; 1 µM
  GR value: 0.364 GR
BSJ-03-123; 3.162 µM
  GR value: 0.386 GR
BSJ-03-123; 10 µM
  GR value: 0.0116 GR
THZ1; 0.0001 µM
  GR value: 1 GR
THZ1; 0.0003162 µM
  GR value: 0.971 GR
THZ1; 0.001 µM
  GR value: 0.687 GR
THZ1; 0.003162 µM
  GR value: 0.659 GR
THZ1; 0.01 µM
  GR value: 0.571 GR
THZ1; 0.03162 µM
  GR value: 0.441 GR
THZ1; 0.1 µM
  GR value: -0.627 GR
THZ1; 0.3162 µM
  GR value: -0.683 GR
THZ1; 1 µM
  GR value: -0.617 GR
[2]; 0.001 µM
  GR value: 1.01 GR
[2]; 0.003162 µM
  GR value: 0.837 GR
[2]; 0.01 µM
  GR value: 0.806 GR
[2]; 0.03162 µM
  GR value: 0.594 GR
[2]; 0.1 µM
  GR value: 0.62 GR
[2]; 0.3162 µM
  GR value: 0.536 GR
[2]; 1 µM
  GR value: 0.577 GR
[2]; 3.162 µM
  GR value: 0.696 GR
[2]; 10 µM
  GR value: 0.274 GR
THZ531 [3]; 0.0001 µM
  GR value: 1.09 GR
THZ531 [3]; 0.0003162 µM
  GR value: 0.953 GR
THZ531 [3]; 0.001 µM
  GR value: 0.521 GR
THZ531 [3]; 0.003162 µM
  GR value: 0.917 GR
THZ531 [3]; 0.01 µM
  GR value: 1.1 GR
THZ531 [3]; 0.03162 µM
  GR value: 0.881 GR
THZ531 [3]; 0.1 µM
  GR value: -0.388 GR
THZ531 [3]; 0.3162 µM
  GR value: -0.861 GR
THZ531 [3]; 1 µM
  GR value: -0.675 GR
[4]; 0.0003162 µM
  GR value: 1.12 GR
[4]; 0.001 µM
  GR value: 1.05 GR
[4]; 0.003162 µM
  GR value: 1.11 GR
[4]; 0.01 µM
  GR value: 0.918 GR
[4]; 0.03162 µM
  GR value: 0.735 GR
[4]; 0.1 µM
  GR value: 0.668 GR
[4]; 0.3162 µM
  GR value: 0.619 GR
[4]; 1 µM
  GR value: 0.611 GR
[4]; 3.162 µM
  GR value: 0.544 GR
Rucaparib
  GR50, 72 h: > 10 µM
BSJ-01-175
  GR50, 72 h: 0.0747 µM
Tivantinib/ARQ197
  GR50, 72 h: 0.551 µM
Pictilisib/GDC0941
  GR50, 72 h: 0.188 µM
Cediranib/AZD2171
  GR50, 72 h: > 10 µM
Senexin b
  GR50, 72 h: 5.65 µM
Ceritinib/LDK378
  GR50, 72 h: > 10 µM
AZD6738
  GR50, 72 h: 7.93 µM
Paclitaxel
  GR50, 72 h: 0.00412 µM
THZ531 [5]
  GR50, 72 h: 0.0537 µM
